Where two headings read alike, the source gives them in different places.
Assays:
IRAK1 = IRAK1 (Homo sapiens, UniProt P51617); assay: RBC HotSpot Kinase Assay, IRAK1; details: IRAK1 IC50
IRAK4 [1] = molecular target: T1, IRAK4 (Homo sapiens, UniProt Q9NWZ3); assay: Reaction Biology NanoBRET target engagement assay in HEK-293 cells, IRAK4; details: NanoBRET IRAK4 IC50, HEK-293 cells
T1 sequence (Q9NWZ3 1-460): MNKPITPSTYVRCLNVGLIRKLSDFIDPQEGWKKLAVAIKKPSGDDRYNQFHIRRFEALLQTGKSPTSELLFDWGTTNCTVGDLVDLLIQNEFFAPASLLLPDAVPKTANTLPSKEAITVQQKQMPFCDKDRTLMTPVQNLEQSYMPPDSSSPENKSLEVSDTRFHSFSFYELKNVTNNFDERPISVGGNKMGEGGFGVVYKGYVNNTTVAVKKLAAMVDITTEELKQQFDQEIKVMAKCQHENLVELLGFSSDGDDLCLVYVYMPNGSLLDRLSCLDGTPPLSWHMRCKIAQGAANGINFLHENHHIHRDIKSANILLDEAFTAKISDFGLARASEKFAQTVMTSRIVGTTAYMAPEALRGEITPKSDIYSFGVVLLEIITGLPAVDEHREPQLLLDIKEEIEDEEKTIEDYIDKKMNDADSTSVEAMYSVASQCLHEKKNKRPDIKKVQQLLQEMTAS

FLT3 [2] = molecular target: T2, FLT3 (Homo sapiens, UniProt P36888); assay: RBC HotSpot Kinase Assay, FLT3
T2 sequence (P36888 610-943 limits assumed): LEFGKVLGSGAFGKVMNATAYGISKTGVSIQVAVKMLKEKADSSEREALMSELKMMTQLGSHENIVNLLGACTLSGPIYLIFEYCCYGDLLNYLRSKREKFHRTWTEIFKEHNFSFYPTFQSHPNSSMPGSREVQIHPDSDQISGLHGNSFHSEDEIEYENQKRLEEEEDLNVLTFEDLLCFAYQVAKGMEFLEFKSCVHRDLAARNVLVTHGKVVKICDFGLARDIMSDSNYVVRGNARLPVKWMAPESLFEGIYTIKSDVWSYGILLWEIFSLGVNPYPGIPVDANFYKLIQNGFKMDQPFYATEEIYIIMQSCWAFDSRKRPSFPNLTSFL

FLT3 [3] = molecular target: T3, FLT3 (Homo sapiens, UniProt P36888); assay: Reaction Biology NanoBRET target engagement assay in HEK-293 cells, FLT3; details: NanoBRET FLT3 IC50, HEK-293 cells
T3 sequence (P36888 27-993): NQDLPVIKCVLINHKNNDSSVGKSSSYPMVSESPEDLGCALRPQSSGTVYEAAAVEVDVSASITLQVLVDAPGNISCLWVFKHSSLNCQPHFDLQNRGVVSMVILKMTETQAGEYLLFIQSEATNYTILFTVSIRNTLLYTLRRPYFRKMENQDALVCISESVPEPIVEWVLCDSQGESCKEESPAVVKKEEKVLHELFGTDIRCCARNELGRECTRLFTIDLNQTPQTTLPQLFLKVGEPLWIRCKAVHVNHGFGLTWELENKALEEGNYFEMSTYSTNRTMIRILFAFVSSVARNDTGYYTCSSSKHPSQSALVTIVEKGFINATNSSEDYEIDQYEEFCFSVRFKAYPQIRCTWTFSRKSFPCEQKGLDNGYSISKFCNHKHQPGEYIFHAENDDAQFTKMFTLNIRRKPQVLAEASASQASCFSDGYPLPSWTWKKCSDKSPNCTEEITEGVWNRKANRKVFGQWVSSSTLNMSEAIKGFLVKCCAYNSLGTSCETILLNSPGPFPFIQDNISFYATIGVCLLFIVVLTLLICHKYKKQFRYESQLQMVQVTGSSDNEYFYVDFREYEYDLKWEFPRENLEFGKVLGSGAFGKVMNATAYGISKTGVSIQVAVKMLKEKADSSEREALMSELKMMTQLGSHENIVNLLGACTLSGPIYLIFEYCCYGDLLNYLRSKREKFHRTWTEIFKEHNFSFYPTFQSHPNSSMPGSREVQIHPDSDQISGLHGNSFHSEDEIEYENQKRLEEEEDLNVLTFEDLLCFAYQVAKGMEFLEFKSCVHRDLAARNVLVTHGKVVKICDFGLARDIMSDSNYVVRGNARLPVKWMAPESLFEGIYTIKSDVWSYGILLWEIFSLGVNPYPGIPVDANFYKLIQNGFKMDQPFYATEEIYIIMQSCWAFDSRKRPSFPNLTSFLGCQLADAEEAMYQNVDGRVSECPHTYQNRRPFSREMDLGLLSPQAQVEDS

IRAK4 [4] = molecular target: T1, IRAK4; assay: RBC HotSpot Kinase Assay, IRAK4; details: IRAK4 IC50
MOLM14 D835Y cells = assay: cells; type: cell-based; details: Homo sapiens, MOLM-14, 48 h, 48 hours, Cell Titer Glo; read-out: MOLM14 D835Y IC50
MOLM14 F691L cells = assay: cells; type: cell-based; details: Homo sapiens, MOLM-14, 48 h, 48 hours, Cell Titer Glo; read-out: MOLM14 F691L IC50
MOLM14(D835Y) cells = type: cell-based; details: MOLM14(D835Y) cells; for Excess HSA Score: 10 × 10
THP1 cells = assay: Combination drug screening, Cell Titer Glo, 10 × 10 matrix, THP1 cells; type: cell-based
[5] = combination with (+)-BAY-1251152
[6] = combination with Eprenetapopt/APR-246
[7] = combination with Venetoclax (ABT-199)
[8] = with (+)-BAY-1251152, single compound range 0-10,000 nM or 0-20,000 nM
[9] = with AMG-232, single compound range 0-10,000 nM or 0-20,000 nM
[10] = with AZD-5363, single compound range 0-10,000 nM or 0-20,000 nM
[11] = with Eprenetapopt/APR-246, single compound range 0-10,000 nM or 0-20,000 nM
[12] = with Ivosidenib, single compound range 0-10,000 nM or 0-20,000 nM
[13] = with Lenalidomide, single compound range 0-10,000 nM or 0-20,000 nM
[14] = with Palbociclib, single compound range 0-10,000 nM or 0-20,000 nM
[15] = with Prednisolone, single compound range 0-10,000 nM or 0-20,000 nM
[16] = with SNDX-5613, single compound range 0-10,000 nM or 0-20,000 nM
[17] = with TNO-155, single compound range 0-10,000 nM or 0-20,000 nM
[18] = with Trametinib, single compound range 0-10,000 nM or 0-20,000 nM
[19] = with Ulixertinib, single compound range 0-10,000 nM or 0-20,000 nM
[20] = with Venetoclax (ABT-199), single compound range 0-10,000 nM or 0-20,000 nM

IRAK1, sequence (P51617 whole entry): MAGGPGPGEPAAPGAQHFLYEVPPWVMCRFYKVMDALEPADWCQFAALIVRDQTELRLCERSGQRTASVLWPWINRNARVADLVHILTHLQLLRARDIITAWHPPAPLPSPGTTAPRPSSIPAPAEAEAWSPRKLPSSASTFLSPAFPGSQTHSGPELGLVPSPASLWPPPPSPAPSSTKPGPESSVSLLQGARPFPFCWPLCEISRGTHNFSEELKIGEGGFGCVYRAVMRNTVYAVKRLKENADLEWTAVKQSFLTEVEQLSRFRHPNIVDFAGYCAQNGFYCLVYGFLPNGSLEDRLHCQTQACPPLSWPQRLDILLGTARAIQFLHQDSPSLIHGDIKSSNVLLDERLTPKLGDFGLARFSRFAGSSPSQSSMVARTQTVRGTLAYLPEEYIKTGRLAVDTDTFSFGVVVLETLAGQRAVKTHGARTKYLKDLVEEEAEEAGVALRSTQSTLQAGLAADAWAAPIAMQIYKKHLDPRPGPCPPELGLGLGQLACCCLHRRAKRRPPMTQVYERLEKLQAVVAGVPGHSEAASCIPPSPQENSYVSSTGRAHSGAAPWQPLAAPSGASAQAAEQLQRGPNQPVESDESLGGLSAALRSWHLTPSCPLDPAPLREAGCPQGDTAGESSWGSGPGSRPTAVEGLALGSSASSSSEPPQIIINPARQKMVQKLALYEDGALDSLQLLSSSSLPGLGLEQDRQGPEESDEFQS

## CC(O)(c1cn2c(-c3ccnc(N[C@H]4CNCC[C@@H]4F)n3)cnc2cn1)C(F)(F)F (single isomer, unassigned) [Compound 70]
IRAK1
  IC50: 12 nM
IRAK4 [1]
  IC50: 29 nM
FLT3 [2]; read-out: FLT3 IC50
  IC50: < 0.5 nM
FLT3 [3]
  IC50: 1120 nM
IRAK4 [4]
  IC50: 43 nM

## CC(C)(O)c1ccc2ncc(-c3cncc(N[C@H]4CNCC[C@@H]4F)n3)n2c1 [Compound 18, 2-(3-(6-(((3S,4S)-4-fluoropiperidin-3-yl)amino)pyrazin-2-yl)imidazo[1,2-a]pyridin-6-yl)propan-2-ol]
IRAK1
  IC50: 116 nM
IRAK4 [1]
  IC50: 0.8 nM
FLT3 [2]; FLT3 IC50
  IC50: 1 nM
FLT3 [3]
  IC50: 2820 nM
IRAK4 [4]
  IC50: 3 nM

## FC(F)COc1ccn2c(-c3ccnc(N[C@H]4CNCC[C@@H]4F)n3)cnc2c1 [Compound 33, 4-(7-(2,2-difluoroethoxy)imidazo[1,2-a]pyridin-3-yl)-N-((3S,4S)-4-fluoropiperidin-3-yl)pyrimidin-2-amine]
IRAK1
  IC50: 30 nM
MOLM14 D835Y cells
  IC50: 7 nM
MOLM14 F691L cells
  IC50: 55 nM
MOLM14(D835Y) cells; [5]
  Excess HSA Score: 684.1
MOLM14(D835Y) cells; combination with AMG-232
  Excess HSA Score: −604.4
MOLM14(D835Y) cells; combination with AZD-5363
  Excess HSA Score: 320.5
MOLM14(D835Y) cells; [6]
  Excess HSA Score: −279.9
MOLM14(D835Y) cells; combination with Ivosidenib
  Excess HSA Score: −12.14
MOLM14(D835Y) cells; combination with Lenalidomide
  Excess HSA Score: −11.33
MOLM14(D835Y) cells; combination with Palbociclib
  Excess HSA Score: 347
MOLM14(D835Y) cells; combination with Prednisolone
  Excess HSA Score: −659.1
  Comments: Synergistic
MOLM14(D835Y) cells; combination with SNDX-5613
  Excess HSA Score: 95.25
  Comments: Antagonistic
MOLM14(D835Y) cells; combination with TNO-155
  Excess HSA Score: 177.1
MOLM14(D835Y) cells; combination with Trametinib
  Excess HSA Score: −226.8
MOLM14(D835Y) cells; combination with Ulixertinib
  Excess HSA Score: −441.5
MOLM14(D835Y) cells; [7]
  Excess HSA Score: −315.6
FLT3 [2]; FLT3 IC50
  IC50: < 0.5 nM
THP1 cells; THP1 cells, 10 × 10, combination with (+)-BAY-1251152
  Excess HSA Score: −13.85
THP1 cells; THP1 cells, 10 × 10, combination with AMG-232
  Excess HSA Score: −215.5
THP1 cells; THP1 cells, 10 × 10, combination with AZD-5363
  Excess HSA Score: −132.5
THP1 cells; THP1 cells, 10 × 10, combination with Eprenetapopt/APR-246
  Excess HSA Score: 545.1487
THP1 cells; THP1 cells, 10 × 10, combination with Ivosidenib
  Excess HSA Score: −154.2
THP1 cells; THP1 cells, 10 × 10, combination with Lenalidomide
  Excess HSA Score: 178.6
THP1 cells; THP1 cells, 10 × 10, combination with Palbociclib
  Excess HSA Score: −194.6
THP1 cells; THP1 cells, 10 × 10, combination with Prednisolone
  Excess HSA Score: 467.2
THP1 cells; THP1 cells, 10 × 10, combination with SNDX-5613
  Excess HSA Score: 587.7
THP1 cells; THP1 cells, 10 × 10, combination with TNO-155
  Excess HSA Score: −195.2
THP1 cells; THP1 cells, 10 × 10, combination with Trametinib
  Excess HSA Score: −463.7
THP1 cells; THP1 cells, 10 × 10, combination with Ulixertinib
  Excess HSA Score: −63.1
THP1 cells; THP1 cells, 10 × 10, combination with Venetoclax (ABT-199)
  Excess HSA Score: −1595
THP1 cells; THP1 cells, combination with Lenalidomide
  Comments: Antagonistic
THP1 cells; THP1 cells, combination with Venetoclax (ABT-199)
  Comments: Synergistic
IRAK4 [4]
  IC50: 2 nM

## COc1ccn2c(-c3cncc(N[C@@H]4CCCNC4)n3)cnc2c1 [Compound 5, (R)-6-(7-methoxyimidazo[1,2-a]pyridin-3-yl)-N-(piperidin-3-yl)pyrazin-2-amine]
IRAK1
  IC50: 62 nM
MOLM14 D835Y cells
  IC50: 24 nM
MOLM14 F691L cells
  IC50: 55 nM
MOLM14(D835Y) cells; [5]
  Excess HSA Score: 11.13
  Comments: Antagonistic
MOLM14(D835Y) cells; combination with AMG-232
  Excess HSA Score: −114.6
MOLM14(D835Y) cells; combination with AZD-5363
  Excess HSA Score: −297.4
MOLM14(D835Y) cells; [6]
  Excess HSA Score: −154.6246
MOLM14(D835Y) cells; combination with Ivosidenib
  Excess HSA Score: −34.74
MOLM14(D835Y) cells; combination with Lenalidomide
  Excess HSA Score: −84.4505
MOLM14(D835Y) cells; combination with Palbociclib
  Excess HSA Score: −483.7
MOLM14(D835Y) cells; combination with Prednisolone
  Excess HSA Score: −69.46
MOLM14(D835Y) cells; combination with SNDX-5613
  Excess HSA Score: −465.3
MOLM14(D835Y) cells; combination with TNO-155
  Excess HSA Score: −575.9
MOLM14(D835Y) cells; combination with Trametinib
  Excess HSA Score: 213.7
MOLM14(D835Y) cells; combination with Ulixertinib
  Excess HSA Score: −1042
  Comments: Synergistic
MOLM14(D835Y) cells; [7]
  Excess HSA Score: −862.5
FLT3 [2]; FLT3 IC50
  IC50: < 0.5 nM
THP1 cells; [8]
  Comments: Synergistic
  Excess HSA Score: −264.5
THP1 cells; [9]
  Comments: Antagonistic
  Excess HSA Score: 105.5
THP1 cells; [10]
  Comments: Synergistic
  Excess HSA Score: −94.57
THP1 cells; [11]
  Comments: Antagonistic
  Excess HSA Score: 163.2
THP1 cells; [12]
  Comments: Antagonistic
  Excess HSA Score: 190
THP1 cells; [13]
  Comments: Antagonistic
  Excess HSA Score: 264.6
THP1 cells; [14]
  Comments: Antagonistic
  Excess HSA Score: 624.7438
THP1 cells; [15]
  Comments: Antagonistic
  Excess HSA Score: 31.68
THP1 cells; [16]
  Comments: Antagonistic
  Excess HSA Score: 340
THP1 cells; [17]
  Comments: Antagonistic
  Excess HSA Score: 28.11
THP1 cells; [18]
  Comments: Antagonistic
  Excess HSA Score: 374.3
THP1 cells; [19]
  Comments: Antagonistic
  Excess HSA Score: 565.8
THP1 cells; [20]
  Comments: Synergistic
  Excess HSA Score: −1771.116
IRAK4 [4]
  IC50: 1 nM

From patent US20250154144A1 (CHILDREN'S HOSPITAL MEDICAL CENTER, priority 2021, published 2025)
